Results published in ChEMBL document CHEMBL4145653, “Biosynthetic Baeyer-Villiger Chemistry Enables Access to Two Anthracene Scaffolds from a Single Gene Cluster in Deep-Sea-Derived Streptomyces olivaceus SCSIO T05” (J Nat Prod, 2018).

Columns and labels:
Alpha-2-macroglobulin = target: T1, Alpha-2-macroglobulin (Homo sapiens, UniProt P01023); experiment: Inhibition of alpha-2 macroglobulin (unknown origin)
T1 sequence (P01023 whole entry): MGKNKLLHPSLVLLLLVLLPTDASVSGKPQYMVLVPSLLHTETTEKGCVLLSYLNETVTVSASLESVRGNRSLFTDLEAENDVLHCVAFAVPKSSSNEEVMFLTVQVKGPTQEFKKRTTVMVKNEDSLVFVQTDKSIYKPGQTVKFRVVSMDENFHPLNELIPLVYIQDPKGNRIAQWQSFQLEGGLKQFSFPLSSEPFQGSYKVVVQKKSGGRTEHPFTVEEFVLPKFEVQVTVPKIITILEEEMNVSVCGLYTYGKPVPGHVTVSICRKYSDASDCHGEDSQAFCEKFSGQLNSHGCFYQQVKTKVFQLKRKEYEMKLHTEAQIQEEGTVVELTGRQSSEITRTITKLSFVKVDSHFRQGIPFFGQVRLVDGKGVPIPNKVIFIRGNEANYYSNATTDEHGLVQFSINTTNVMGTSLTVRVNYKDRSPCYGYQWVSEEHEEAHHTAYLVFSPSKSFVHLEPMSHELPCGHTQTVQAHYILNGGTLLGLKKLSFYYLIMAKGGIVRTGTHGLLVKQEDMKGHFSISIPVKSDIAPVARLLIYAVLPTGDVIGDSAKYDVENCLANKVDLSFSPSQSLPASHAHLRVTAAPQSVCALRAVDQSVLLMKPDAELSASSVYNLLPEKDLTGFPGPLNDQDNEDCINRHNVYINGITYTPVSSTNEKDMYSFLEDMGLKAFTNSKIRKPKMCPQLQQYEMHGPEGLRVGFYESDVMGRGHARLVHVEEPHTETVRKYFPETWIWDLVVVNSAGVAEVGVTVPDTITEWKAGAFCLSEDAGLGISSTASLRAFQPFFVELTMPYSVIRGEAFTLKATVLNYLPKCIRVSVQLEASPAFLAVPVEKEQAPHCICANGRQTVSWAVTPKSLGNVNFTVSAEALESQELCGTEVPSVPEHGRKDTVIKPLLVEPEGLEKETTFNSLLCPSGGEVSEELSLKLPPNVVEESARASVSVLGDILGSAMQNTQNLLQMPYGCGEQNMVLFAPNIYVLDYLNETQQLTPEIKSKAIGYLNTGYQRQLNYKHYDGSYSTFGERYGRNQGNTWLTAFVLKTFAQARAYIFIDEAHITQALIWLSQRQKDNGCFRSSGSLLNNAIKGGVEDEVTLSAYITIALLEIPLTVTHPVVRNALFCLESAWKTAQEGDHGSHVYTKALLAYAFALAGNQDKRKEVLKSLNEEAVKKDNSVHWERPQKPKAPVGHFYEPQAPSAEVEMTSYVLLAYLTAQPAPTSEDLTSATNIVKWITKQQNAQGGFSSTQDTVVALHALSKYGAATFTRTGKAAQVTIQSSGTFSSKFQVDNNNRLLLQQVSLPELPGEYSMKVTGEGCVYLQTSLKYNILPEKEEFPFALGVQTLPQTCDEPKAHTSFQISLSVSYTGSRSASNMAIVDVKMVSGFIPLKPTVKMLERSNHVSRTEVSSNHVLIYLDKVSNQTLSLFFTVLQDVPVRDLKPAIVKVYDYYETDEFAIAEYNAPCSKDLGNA

[1] = Inhibition of glutathione S-transferase (unknown origin); set-up: species or system Homo sapiens

| SMILES | IC50 (Alpha-2-macroglobulin) [µM] | IC50 [1] [µM] |
| --- | --- | --- |
| CC(C)CC[C@@]1(O)c2cc3c(O)cccc3cc2C(=O)[C@H](C)[C@]1(O)C(=O)O | 94 | 26.9 |
| CC(C)CC[C@]1(O)[C@@]2(O)C(=O)O[C@]13C(=Cc1cccc(O)c1[C@@H]3O)C(=O)[C@@H]2C | 257 |  |
